{
  "source": "ChEMBL document CHEMBL3045147",
  "about": "“Synthesis and evaluation of a series of novel imidazolidinone analogues of 6-aminoflavone as anticancer and anti-inflammatory agents” (Med Chem Res, 2013)",
  "key": {"[1]": {"test_system": "Rattus norvegicus", "experiment": "Anti-inflammatory activity in Wistar Rattus norvegicus (rat) assessed as inhibition of carrageenan-induced paw edema at 100 mg/kg/day, po measured after 3 hr", "type": "functional"}, "[2]": {"experiment": "Anticancer activity against Mus musculus (mouse) EAC cells xenografted in albino mouse assessed as increase in body weight at 100 mg/kg/day administered for 9 days measured on day 15 (reference value: 58.81 +/-2.67%)", "type": "functional, Ehrlich"}, "[3]": {"experiment": "Anticancer activity against Mus musculus (mouse) EAC cells xenografted in albino mouse assessed as increase in body weight at 100 mg/kg/day administered for 9 days measured on day 12 (reference value: 44.42 +/-2.82%)", "type": "functional, Ehrlich"}, "[4]": {"experiment": "Anticancer activity against Mus musculus (mouse) EAC cells xenografted in albino mouse assessed as increase in body weight at 100 mg/kg/day administered for 9 days measured on day 9 (reference value: 34.31 +/-1.06%)", "type": "functional, Ehrlich"}, "[5]": {"experiment": "Anticancer activity against Mus musculus (mouse) EAC cells xenografted in albino mouse assessed as increase in body weight at 100 mg/kg/day administered for 9 days measured on day 6 (reference value: 16.31 +/-0.48%)", "type": "functional, Ehrlich"}, "[6]": {"experiment": "Anticancer activity against Mus musculus (mouse) EAC cells xenografted in albino mouse assessed as increase in body weight at 100 mg/kg/day administered for 9 days measured on day 3 (reference value: 4.56 +/-0.52%)", "type": "functional, Ehrlich"}, "[7]": {"test_system": "Ehrlich", "experiment": "Anticancer activity against Mus musculus (mouse) EAC cells xenografted in albino mouse assessed as decrease in ascites fluid volume at 50 to 100 mg/kg/day administered for 9 days", "type": "functional, organism-based"}, "[8]": {"experiment": "Anticancer activity against Mus musculus (mouse) EAC cells xenografted in albino mouse assessed as increase in median life span at 50 mg/kg/day administered for 9 days", "type": "functional, Ehrlich"}, "[9]": {"experiment": "Anticancer activity against Mus musculus (mouse) EAC cells xenografted in albino mouse assessed as median survival time at 50 mg/kg/day administered for 9 days (reference value: 17 days)", "type": "functional, Ehrlich"}, "[10]": {"experiment": "Anticancer activity against Mus musculus (mouse) EAC cells xenografted in albino mouse assessed as increase in median life span at 100 mg/kg/day administered for 9 days", "type": "functional, Ehrlich"}, "[11]": {"experiment": "Anticancer activity against Mus musculus (mouse) EAC cells xenografted in albino mouse assessed as median survival time at 100 mg/kg/day administered for 9 days (reference value: 17 days)", "type": "functional, Ehrlich"}, "[12]": {"experiment": "Anticancer activity against Mus musculus (mouse) EAC cells xenografted in albino mouse assessed as increase in mean life span at 50 mg/kg/day administered for 9 days", "type": "functional, Ehrlich"}, "[13]": {"experiment": "Anticancer activity against Mus musculus (mouse) EAC cells xenografted in albino mouse assessed as mean survival time at 50 mg/kg/day administered for 9 days (reference value: 17.33 +/-0.21 days)", "type": "functional, Ehrlich"}, "[14]": {"experiment": "Anticancer activity against Mus musculus (mouse) EAC cells xenografted in albino mouse assessed as increase in mean life span at 100 mg/kg/day administered for 9 days", "type": "functional, Ehrlich"}, "[15]": {"experiment": "Anticancer activity against Mus musculus (mouse) EAC cells xenografted in albino mouse assessed as mean survival time at 100 mg/kg/day administered for 9 days (reference value: 17.33 +/-0.21 days)", "type": "functional, Ehrlich"}, "[16]": {"test_system": "HeLa", "experiment": "Cell cycle arrest in Homo sapiens (human) HeLa cells assessed as accumulation of cells at Sub-G0 phase after 48 hr by FACS analysis (reference value: 1.15%)", "type": "functional"}, "[17]": {"test_system": "HeLa", "experiment": "Cell cycle arrest in Homo sapiens (human) HeLa cells assessed as accumulation of cells at G2/M phase after 48 hr by FACS analysis (reference value: 18.65%)", "type": "functional"}, "[18]": {"test_system": "HeLa", "experiment": "Cell cycle arrest in Homo sapiens (human) HeLa cells assessed as accumulation of cells at S phase after 48 hr by FACS analysis (reference value: 6.34%)", "type": "functional"}, "[19]": {"test_system": "HeLa", "experiment": "Cell cycle arrest in Homo sapiens (human) HeLa cells assessed as accumulation of cells at G0/G1 phase after 48 hr by FACS analysis (reference value: 74.27%)", "type": "functional"}, "[20]": {"test_system": "HeLa", "experiment": "Cytotoxicity against Homo sapiens (human) HeLa cells assessed as morphological changes after 24 hr by microscopic analysis", "type": "functional, cell-based"}, "[21]": {"test_system": "HeLa", "experiment": "Ratio of 6-aminoflavone IC50 to compound IC50 for Homo sapiens (human) HeLa cells", "type": "functional"}, "[22]": {"test_system": "MDA-MB-435", "experiment": "Ratio of 6-aminoflavone IC50 to compound IC50 for Homo sapiens (human) MDA-MB-435 cells", "type": "functional"}, "[23]": {"test_system": "MDA-MB-435", "experiment": "Cytotoxicity against Homo sapiens (human) MDA-MB-435 cells assessed as inhibition of cell viability by SRB assay", "type": "functional, cell-based"}, "[24]": {"test_system": "HeLa", "experiment": "Cytotoxicity against Homo sapiens (human) HeLa cells assessed as inhibition of cell viability by SRB assay", "type": "functional, cell-based"}, "[25]": {"test_system": "MDA-MB-435", "experiment": "Cytotoxicity against Homo sapiens (human) MDA-MB-435 cells assessed as inhibition of cell viability by MTT assay", "type": "functional, cell-based"}, "[26]": {"test_system": "HeLa", "experiment": "Cytotoxicity against Homo sapiens (human) HeLa cells assessed as inhibition of cell viability by MTT assay", "type": "functional, cell-based"}, "[27]": {"test_system": "Rattus norvegicus", "experiment": "Anti-inflammatory activity in Wistar Rattus norvegicus (rat) assessed as inhibition of carrageenan-induced paw edema at 50 mg/kg, po measured after 3 hr", "type": "functional"}},
  "note": "The source made the active and inactive calls. The calls are words filed in the database; no cut-off is given here.",
  "data": [
    {"compound": "COc1ccc(/C=C2/N=C(c3ccccc3)N(c3ccc4oc(-c5ccccc5)cc(=O)c4c3)C2=O)cc1OC", "values": [
      {"measurement": "inhibition in vivo at 100 mg/kg/day", "setting": "[1]", "result": 49.8, "unit": "%"},
      {"measurement": "Activity", "setting": "[2]", "result": 19.99, "unit": "%"},
      {"measurement": "Activity", "setting": "[3]", "result": 17.47, "unit": "%"},
      {"measurement": "Activity", "setting": "[4]", "result": 13.63, "unit": "%"},
      {"measurement": "Activity", "setting": "[5]", "result": 9.39, "unit": "%"},
      {"measurement": "Activity", "setting": "[6]", "result": 3.58, "unit": "%"},
      {"measurement": "inhibition", "setting": "[7]", "result": "Active"},
      {"measurement": "Activity", "setting": "[8]", "result": 32.35, "unit": "%"},
      {"measurement": "MST", "setting": "[9]", "result": 22.5, "unit": "days"},
      {"measurement": "Activity", "setting": "[10]", "result": 35.29, "unit": "%"},
      {"measurement": "MST", "setting": "[11]", "result": 23, "unit": "days"},
      {"measurement": "Activity", "setting": "[12]", "result": 28.87, "unit": "%"},
      {"measurement": "MST", "setting": "[13]", "result": 22.33, "unit": "days"},
      {"measurement": "Activity", "setting": "[14]", "result": 32.72, "unit": "%"},
      {"measurement": "MST", "setting": "[15]", "result": 23, "unit": "days"},
      {"measurement": "Activity", "setting": "[16]", "result": 21.63, "unit": "%"},
      {"measurement": "Activity", "setting": "[17]", "result": 28.37, "unit": "%"},
      {"measurement": "Activity", "setting": "[18]", "result": 14.1, "unit": "%"},
      {"measurement": "Activity", "setting": "[19]", "result": 36.8, "unit": "%"},
      {"measurement": "Activity", "setting": "[20]", "result": "Active"},
      {"measurement": "Ratio IC50", "setting": "[21]", "result": 5},
      {"measurement": "Ratio IC50", "setting": "[22]", "result": 5},
      {"measurement": "IC50", "setting": "[23]", "result": 11.9, "unit": "µg/mL"},
      {"measurement": "IC50", "setting": "[24]", "result": 11.1, "unit": "µg/mL"},
      {"measurement": "IC50", "setting": "[25]", "result": 10.8, "unit": "µg/mL"},
      {"measurement": "IC50", "setting": "[26]", "result": 9.87, "unit": "µg/mL"}
    ]},
    {"compound": "Nc1ccc2oc(-c3ccccc3)cc(=O)c2c1", "note": "[6-AMINOFLAVONE]", "values": [
      {"measurement": "inhibition in vivo at 100 mg/kg/day", "setting": "[1]", "result": 24.2, "unit": "%"},
      {"measurement": "IC50", "setting": "[23]", "result": 78.4, "unit": "µg/mL"},
      {"measurement": "IC50", "setting": "[24]", "result": 63.6, "unit": "µg/mL"},
      {"measurement": "IC50", "setting": "[25]", "result": 59.5, "unit": "µg/mL"},
      {"measurement": "IC50", "setting": "[26]", "result": 55.8, "unit": "µg/mL"}
    ]},
    {"compound": "O=C1/C(=C\\c2ccc(O)cc2)N=C(c2ccccc2)N1c1ccc2oc(-c3ccccc3)cc(=O)c2c1", "values": [
      {"measurement": "inhibition in vivo at 100 mg/kg/day", "setting": "[1]", "result": 47.6, "unit": "%"},
      {"measurement": "IC50", "setting": "[23]", "result": 21.4, "unit": "µg/mL"},
      {"measurement": "IC50", "setting": "[24]", "result": 18.9, "unit": "µg/mL"},
      {"measurement": "IC50", "setting": "[25]", "result": 18, "unit": "µg/mL"},
      {"measurement": "IC50", "setting": "[26]", "result": 16.4, "unit": "µg/mL"}
    ]},
    {"compound": "COc1ccc(/C=C2/N=C(c3ccccc3)N(c3ccc4oc(-c5ccccc5)cc(=O)c4c3)C2=O)cc1", "values": [
      {"measurement": "inhibition in vivo at 100 mg/kg/day", "setting": "[1]", "result": 45.1, "unit": "%"},
      {"measurement": "IC50", "setting": "[23]", "result": 21.7, "unit": "µg/mL"},
      {"measurement": "IC50", "setting": "[24]", "result": 17.6, "unit": "µg/mL"},
      {"measurement": "IC50", "setting": "[25]", "result": 18.5, "unit": "µg/mL"},
      {"measurement": "IC50", "setting": "[26]", "result": 14.2, "unit": "µg/mL"}
    ]},
    {"compound": "COc1cccc2c1C(=O)c1c(O)c3c(c(O)c1C2=O)C[C@@](O)(C(=O)CO)C[C@@H]3O[C@H]1C[C@H](N)[C@H](O)[C@H](C)O1.Cl", "note": "[DOXORUBICIN HYDROCHLORIDE]", "values": [
      {"measurement": "Activity", "setting": "[16]", "result": 2.22, "unit": "%"},
      {"measurement": "Activity", "setting": "[17]", "result": 76.76, "unit": "%"},
      {"measurement": "Activity", "setting": "[18]", "result": 4.01, "unit": "%"},
      {"measurement": "Activity", "setting": "[19]", "result": 16.62, "unit": "%"},
      {"measurement": "IC50", "setting": "[23]", "result": 0.93, "unit": "µg/mL"},
      {"measurement": "IC50", "setting": "[25]", "result": 0.77, "unit": "µg/mL"}
    ]},
    {"compound": "O=C1/C(=C\\c2ccccc2)N=C(c2ccccc2)N1c1ccc2oc(-c3ccccc3)cc(=O)c2c1", "values": [
      {"measurement": "inhibition in vivo at 100 mg/kg/day", "setting": "[1]", "result": 38.2, "unit": "%"},
      {"measurement": "IC50", "setting": "[23]", "result": 26.4, "unit": "µg/mL"},
      {"measurement": "IC50", "setting": "[24]", "result": 20.9, "unit": "µg/mL"},
      {"measurement": "IC50", "setting": "[25]", "result": 24.3, "unit": "µg/mL"},
      {"measurement": "IC50", "setting": "[26]", "result": 20.1, "unit": "µg/mL"}
    ]},
    {"compound": "O=C1/C(=C\\c2ccc(Cl)c(Cl)c2)N=C(c2ccccc2)N1c1ccc2oc(-c3ccccc3)cc(=O)c2c1", "values": [
      {"measurement": "inhibition in vivo at 100 mg/kg/day", "setting": "[1]", "result": 36.5, "unit": "%"},
      {"measurement": "IC50", "setting": "[23]", "result": 20.1, "unit": "µg/mL"},
      {"measurement": "IC50", "setting": "[24]", "result": 16, "unit": "µg/mL"},
      {"measurement": "IC50", "setting": "[25]", "result": 16.9, "unit": "µg/mL"},
      {"measurement": "IC50", "setting": "[26]", "result": 15.2, "unit": "µg/mL"}
    ]},
    {"compound": "CC(C)Cc1ccc(C(C)C(=O)O)cc1", "note": "(stereo not drawn) [IBUPROFEN]", "values": [
      {"measurement": "inhibition in vivo at 50 mg/kg", "setting": "[27]", "result": 67.1, "unit": "%"}
    ]}
  ]
}
